Laboratory results from patent US20240425478A1, “CYCLOPENTYLPYRAZOLE CDK2 INHIBITORS” (Genentech, Inc., priority 2021, published 2024).
Where two headings read alike, the source gives them in different places.

Experiments:
SKOV-3 (ATCC HTB-77) = test: SKOV-3 EdU incorporation cell proliferation assay (CDK4/6-dependent); type: cell-based; details: for IC50: Homo sapiens, cellular assay, read-out: CDK4/6 SKOV-3 IC50; for FS SKOV-3/OVISE: fold selectivity
In short: (§1)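 Cells in RPMI/10% FBS dosed with compound (0.5% DMSO final) for 16 h at 37 °C, 5% CO2, then EdU 0.5 μM final for 8 h before fixation and imaging. IC50 from 4-parameter logistic fit of EdU-positive cell fraction versus dose.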

[1] = molecular target: T1, Cyclin Dependent Kinase 4/Cyclin D3 (CDK4-cycD3) (Homo sapiens, UniProt P11802); test: CDK4-cycD3 TR-FRET (LANCE) enzyme assay; type: biochemical; details: for Ki: enzymatic assay; for FS CDK4/CDK2: fold selectivity, enzymatic Ki ratio
T1 construct: purchased Carna Biosciences 04-105
In short: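 Compound dose responses pre-incubated 30 min with enzyme mix in 50 mM HEPES pH 7.5, 10 mM MgCl2, 2 mM TCEP, 0.05% BGG, 0.01% Brij 35. Reaction quenched with EDTA (15 mM final); Eu-anti-phospho-4E-BP1 TR-FRET detection, acceptor/donor ratio. Ki derived by Morrison equation.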

[2] = tested on: OVISE (JCRB1043, CCNE1-amplified); test: OVISE EdU incorporation cell proliferation assay (CDK2-dependent); type: cell-based; details: for IC50: cellular assay, read-out: CDK2 OVISE IC50; for FS SKOV-3/OVISE: cellular SKOV-3 IC50 over OVISE IC50
In short: as §1

[3] = molecular target: T2, Cyclin Dependent Kinase 1/Cyclin A2 (CDK1-cycA2) (Homo sapiens, UniProt P06493); test: CDK1-cycA2 TR-FRET (Lance) enzyme assay; type: biochemical; details: for Ki: enzymatic assay; for FS CDK1/CDK2: fold selectivity, enzymatic Ki ratio
T2 construct: purchased ProQinase 0134-0054-1
In short: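 Human CDK1/cyclin A2 pre-incubated 30 min with compound dose responses in 50 mM HEPES pH 7.5, 10 mM MgCl2, 2 mM TCEP, 0.05% BGG, 0.01% Brij 35. Reaction quenched with EDTA (15 mM final); TR-FRET readout using Eu-anti-phospho-4E-BP1, acceptor/donor ratio. Inhibition constants from Morrison equation.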

[4] = molecular target: T3, Cyclin Dependent Kinase 2/Cyclin E1 (CDK2-cycE1) (Homo sapiens, UniProt P24941); test: CDK2-cycE1 TR-FRET (LANCE) enzyme assay; type: biochemical; details: for FS CDK1/CDK2 / FS CDK4/CDK2: fold selectivity; for FS CDK1/CDK2: enzymatic CDK1 Ki over CDK2 Ki; for FS CDK4/CDK2: enzymatic CDK4 Ki over CDK2 Ki
T3 construct: purchased ProQinase 0050-0055-1
In short: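 Compound dose responses pre-incubated 30 min with CDK2-cycE1 in 50 mM HEPES pH 7.5, 10 mM MgCl2, 2 mM TCEP, 0.05% BGG, 0.01% Brij 35. Reaction quenched with EDTA (15 mM final), phospho-MBP detected by Eu-anti-phospho-MBP TR-FRET (acceptor/donor ratio). Inhibition constants from Morrison equation.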

HCT116 cells = test: p-H3 HCT-116 mitotic release cell proliferation assay (cellular CDK1); type: cell-based; details: for IC50: Homo sapiens, HCT-116, cellular assay, read-out: CDK1 p-H3 IC50; for FS p-H3/OVISE: fold selectivity, cellular IC50 ratio (CDK1 over CDK2)
Method: Inhibition of cellular CDK1 determined by release of cells from nocodazole-induced mitotic arrest, as measured by decrease in phospho-Histone H3. Histone H3 (Ser 10) level is detected in cell lysates by producing a Fluorescence Resonance Energy Transfer (FRET) signal between two antibodies, Phospho-Histone H3 Cryptate (acting as the donor) and Phospho-Histone H3 d2 (acting as the acceptor).
Plates are allowed to rest overnight at 37° C./5% CO2. The following morning, nocodazole is diluted in complete medium, and 5 μL is added to each test well and positive control well for a final concentration of 500 nM. Plates are then incubated for 16 hours at 37° C./5% CO2. […] 10 μL of diluted compound is then transferred to the cell plate (final DMSO concentration 0.1%). Cell plates are then incubated for 4 hours in 37° C. 5% CO2. A cell lysis buffer is prepared on ice using reagents from the Phospho-Histone H3 (Ser10) cellular kit (Cisbio-64HH3PEG). Supernatant is discarded from the cell plate and 80 μL of the supplemented cell lysis buffer (1:99 dilution of the Blocking Reagent and the 1× cell lysis buffer provided in the kit) is added to each of the experimental wells. The cell lysis reaction is allowed to proceed at room temperature while shaking vigorously for 30 minutes. The 384-well HTRF (Homogeneous Time Resolved Fluorescence) plate is prepared by adding 2 μL of each diluted antibody (Phospho-Histone H3 Cryptate antibody and Phospho-Histone H3 d2 antibody diluted 19:1 in a detection buffer) and 12 μL of the supplemented cell lysis buffer to each well in the HTRF plate. 4 μL of the cell lysate is added to the prepared HTRF plate which is then sealed and the reaction is allowed to proceed for a minimum of 2 hours at room temperature.

[5] = cellular IC50 ratio (CDK4/6 over CDK2), Table P
[6] = read-out: CDK2 activity / potency (enzymatic assay)
[7] = Table O, enzymatic assay, read-out: CDK2 Ki

T2 sequence (P06493 whole entry): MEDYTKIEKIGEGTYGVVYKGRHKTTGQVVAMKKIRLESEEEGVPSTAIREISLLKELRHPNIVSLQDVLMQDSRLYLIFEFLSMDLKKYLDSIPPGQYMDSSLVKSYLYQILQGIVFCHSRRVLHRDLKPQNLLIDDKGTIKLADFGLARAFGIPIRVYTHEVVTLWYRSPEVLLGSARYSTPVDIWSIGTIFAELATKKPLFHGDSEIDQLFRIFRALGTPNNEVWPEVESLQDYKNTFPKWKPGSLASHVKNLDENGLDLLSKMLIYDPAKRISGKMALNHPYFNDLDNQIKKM
T2 sequence (P20248 whole entry partner): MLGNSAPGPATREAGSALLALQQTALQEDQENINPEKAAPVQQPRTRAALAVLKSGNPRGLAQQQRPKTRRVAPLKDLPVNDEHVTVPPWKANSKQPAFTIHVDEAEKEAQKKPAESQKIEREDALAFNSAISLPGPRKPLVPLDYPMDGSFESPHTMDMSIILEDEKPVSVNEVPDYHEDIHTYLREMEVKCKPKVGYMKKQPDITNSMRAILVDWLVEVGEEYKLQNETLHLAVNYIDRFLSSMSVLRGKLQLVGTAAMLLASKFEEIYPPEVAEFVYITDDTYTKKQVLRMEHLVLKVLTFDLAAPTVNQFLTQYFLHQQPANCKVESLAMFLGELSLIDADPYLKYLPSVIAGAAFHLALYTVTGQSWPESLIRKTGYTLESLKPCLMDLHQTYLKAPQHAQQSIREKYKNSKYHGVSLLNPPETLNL
T1 sequence (P11802 whole entry): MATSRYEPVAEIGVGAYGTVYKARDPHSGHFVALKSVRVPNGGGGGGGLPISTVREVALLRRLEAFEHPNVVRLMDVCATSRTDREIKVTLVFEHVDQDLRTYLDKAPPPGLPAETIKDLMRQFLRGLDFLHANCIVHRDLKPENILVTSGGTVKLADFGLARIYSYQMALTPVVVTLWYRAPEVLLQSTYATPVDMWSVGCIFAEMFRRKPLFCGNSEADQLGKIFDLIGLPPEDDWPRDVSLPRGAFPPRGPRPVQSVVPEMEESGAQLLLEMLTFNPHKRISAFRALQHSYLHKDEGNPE
T1 sequence (P30281 whole entry partner): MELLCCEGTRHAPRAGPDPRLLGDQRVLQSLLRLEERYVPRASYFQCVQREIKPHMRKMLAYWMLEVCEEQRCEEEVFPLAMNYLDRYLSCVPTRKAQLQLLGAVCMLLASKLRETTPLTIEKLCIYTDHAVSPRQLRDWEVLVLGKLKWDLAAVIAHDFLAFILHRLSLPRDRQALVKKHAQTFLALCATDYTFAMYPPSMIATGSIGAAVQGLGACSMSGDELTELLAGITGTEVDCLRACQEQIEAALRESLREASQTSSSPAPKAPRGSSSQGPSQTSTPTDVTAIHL

Question: Which IC50 (SKOV-3 (ATCC HTB-77); SK-OV-3, Table P) does the source give for CC(C)(C)NC(=O)O[C@@H]1CC[C@H](c2cc(NC(=O)Cc3ccnnc3)n[nH]2)C1 [Comparator A, reference compound] here?
Answer: 1700 nM

Question: And the “FS SKOV-3/OVISE” value (SKOV-3 (ATCC HTB-77); [5])?
Answer: 43

Question: What about the Ki ([1]; Table P) of the same compound?
Answer: 38 nM

Question: And the “FS CDK4/CDK2” value ([1]; Table P)?
Answer: 224

Question: What about the IC50 ([2]; Table P) of the same compound?
Answer: 40 nM

Question: What about the Ki ([3]; Table P) of the same compound?
Answer: 9.1 nM

Question: What about the “FS CDK1/CDK2” value ([3]; Table P) of the same compound?
Answer: 54

Question: And the Ki [4, 6]?
Answer: 0.17 nM

Question: What about the “pH3/OVISE fold selectivity (CDK1 over CDK2, cellular assay data)” value (HCT116 cells) of the same compound?
Answer: 0.78 fold

Question: What about the IC50 (HCT116 cells; Table P) of the same compound?
Answer: 31 nM

Question: What about the “FS p-H3/OVISE” value (HCT116 cells; Table P) of the same compound?
Answer: 0.78

Question: Which results are given for CC(C)(C)NC(=O)O[C@@H]1CC[C@H](c2cc(NC(=O)c3ccnnc3)n[nH]2)C1 [Comparator B, reference compound]?
Answer: IC50 (SKOV-3 (ATCC HTB-77); SK-OV-3, Table P): 6700 nM; FS SKOV-3/OVISE (SKOV-3 (ATCC HTB-77); [5]): 48; Ki ([1]; Table P): 250 nM; FS CDK4/CDK2 ([1]; Table P): 250; IC50 ([2]; Table P): 140 nM; Ki ([3]; Table P): 32 nM; FS CDK1/CDK2 ([3]; Table P): 32; Ki [4, 6]: 1 nM; pH3/OVISE fold selectivity (CDK1 over CDK2, cellular assay data) (HCT116 cells): 0.31 fold; IC50 (HCT116 cells; Table P): 43 nM; FS p-H3/OVISE (HCT116 cells; Table P): 0.31

Question: With Cn1cc(Nc2cc([C@H]3CC[C@@H](OC(=O)NC(C)(C)C)C3)[nH]n2)ccc1=O [Example 1, (1R,3S)-3-(3-((1-methyl-6-oxo-1,6-dihydropyridin-3-yl)amino)-1H-pyrazol-5-yl)cyclopentyl tert-butylcarbamate] as the compound, how does the IC50 (SKOV-3 (ATCC HTB-77); SK-OV-3, Table O) read?
Answer: > 20000 nM

Question: And the IC50 (SKOV-3 (ATCC HTB-77); SK-OV-3, Table R)?
Answer: > 20000 nM

Question: And the IC50 (SKOV-3 (ATCC HTB-77); SK-OV-3, Table S)?
Answer: > 20000 nM

Question: What about the “selectivity for CDK2 over CDK4 compared with Comparator E” value (SKOV-3 (ATCC HTB-77); SKOV-3/OVISE fold-selectivity cellular assay data) of the same compound?
Answer: increase in selectivity for CDK2 over CDK4

Question: What about the “FS SKOV-3/OVISE increased over Comparator D, (+) sign” value (SKOV-3 (ATCC HTB-77); Table R) of the same compound?
Answer: (+)

Question: What about the “FS SKOV-3/OVISE” value (SKOV-3 (ATCC HTB-77); Table R, cellular IC50 ratio) of the same compound?
Answer: > 91

Question: What about the “FS SKOV-3/OVISE increased over Comparator E, (+) sign” value (SKOV-3 (ATCC HTB-77); Table S) of the same compound?
Answer: (+)

Question: And the “FS SKOV-3/OVISE” value (SKOV-3 (ATCC HTB-77); Table S, cellular IC50 ratio)?
Answer: > 91

Question: What about the Ki ([1]; Table O) of the same compound?
Answer: 700 nM

Question: What about the “FS CDK4/CDK2 increased over Comparator D, (+) sign” value ([1]; Table R) of the same compound?
Answer: (+)

Question: And the “FS CDK4/CDK2” value ([1]; Table R)?
Answer: 92

Question: And the “FS CDK4/CDK2 increased over Comparator E, (+) sign” value ([1]; Table S)?
Answer: (+)

Question: And the “FS CDK4/CDK2” value ([1]; Table S)?
Answer: 92

Question: And the IC50 ([2]; Table O)?
Answer: 220 nM

Question: What about the “FS SKOV-3/OVISE” value ([2]; Table O, fold selectivity) of the same compound?
Answer: >91

Question: And the “FS p-H3/OVISE” value ([2]; Table O, fold selectivity, cellular p-H3 IC50 over OVISE IC50)?
Answer: 0.45

Question: What about the “CDK2 OVISE IC50 fold change in potency versus Comparator D” value ([2]; Table R, in brackets after OVISE IC50) of the same compound?
Answer: 17 fold

Question: And the “CDK2 OVISE IC50 fold change in potency versus Comparator E” value ([2]; Table S, in brackets after OVISE IC50)?
Answer: 0.8 fold

Question: And the Ki ([3]; Table O)?
Answer: 270 nM

Question: What about the “FS CDK1/CDK2 increased over Comparator D, (+) sign” value ([3]; Table R) of the same compound?
Answer: (+)

Question: And the “FS CDK1/CDK2” value ([3]; Table R)?
Answer: 36

Question: And the “FS CDK1/CDK2” value ([3]; Table S)?
Answer: 36

Question: What about the Ki [4, 7] of the same compound?
Answer: 7.6 nM

Question: And the “FS CDK1/CDK2” value ([4]; Table O)?
Answer: 36

Question: And the “FS CDK4/CDK2” value ([4]; Table O)?
Answer: 92

Question: What about the Ki ([4]; Table R, enzymatic assay, read-out: CDK2 Ki) of the same compound?
Answer: 7.6 nM

Question: What about the “CDK2 Ki fold change in potency versus Comparator D” value ([4]; Table R, in brackets after CDK2 Ki) of the same compound?
Answer: 0.4 fold

Question: What about the Ki ([4]; Table S, enzymatic assay, read-out: CDK2 Ki) of the same compound?
Answer: 7.6 nM

Question: And the “CDK2 Ki fold change in potency versus Comparator E” value ([4]; Table S, in brackets after CDK2 Ki)?
Answer: 0.1 fold

Question: And the IC50 (HCT116 cells; Table O)?
Answer: 100 nM

Question: Which IC50 (SKOV-3 (ATCC HTB-77); SK-OV-3, Table O) does the source give for O=C(NC12CC(C1)C2)O[C@@H]1CC[C@H](c2cc(Nc3ccnnc3C3CC3)n[nH]2)C1 [Example 11, (1R,3S)-3-(3-((3-cyclopropylpyridazin-4-yl)amino)-1H-pyrazol-5-yl)cyclopentyl bicyclo[1.1.1]pentan-1-ylcarbamate] here?
Answer: > 20000 nM

Question: And the Ki ([1]; Table O)?
Answer: 1100 nM

Question: What about the IC50 ([2]; Table O) of the same compound?
Answer: 2600 nM

Question: And the “FS SKOV-3/OVISE” value ([2]; Table O, fold selectivity)?
Answer: >7.7

Question: And the Ki ([3]; Table O)?
Answer: 890 nM

Question: And the Ki [4, 7]?
Answer: 12 nM

Question: And the “FS CDK1/CDK2” value ([4]; Table O)?
Answer: 74

Question: And the “FS CDK4/CDK2” value ([4]; Table O)?
Answer: 92
